# Measurements from patent US4644055A, “Method for preparing specific inhibitors of virus-specified proteases” (priority 1984, dated 1987).
# Read-outs that look alike come from different tables or passages of the source. Starred links: 1 amine or outer side, 2 acyl side, 3 side chain; linkers in the order of their positions; H or OH if unused. *: point of attachment. code Z = not defined here; MeOSuc = COC(=O)CCC(=O)*; CH2 = C([*:1])[*:2]; CH2Cl = ClC*
# What was measured:
# [1] = test system: human poliomyelitisvirus type 2; type: cell-based, poliovirus type 2; set-up: key to Comparative Experiments Involving Other Peptide Halomethyl Ketones: Activity: -: no activity; +/-: low activity; +: active at 100 μg/mL; ++: active at 50 μg/mL; +++: active at 10 μg/mL; ++++: active at <5 μg/mL
# human rhinovirus type 1A [2] = type: cell-based
# poliovirus type 2 = type: cell-based
# human rhinovirus type 1A [3] = experiment: Plaque inhibition assay, rhinovirus; type: cell-based
# poliovirus = settings: cited from earlier work
# echovirus-12 = settings: Korant 1972; cited from earlier work
# chymotrypsin = chymotrypsin (Bos taurus, UniProt P00766); settings: inhibitor concentration 600 μg/mL; Ito et al. 1972; cited from earlier work
compound,measurement,setting,value
Z--Phe--Lys--Ala--LeuCH2 Cl ({code Z}-FKAL-CH2Cl; reading uncertain; also: printed as Z--Phe--Lys--Ala--LeuCH2 Cl),Comparative Experiments Involving Other Peptide Halomethyl Ketones: Activity,[1],+ (key: -: no activity; +/-: low activity; +: active at 100 μg/mL; ++: active at 50 μg/mL; +++: active at 10 μg/mL; ++++: active at <5 μg/mL)
Z--Phe--Gly--Gly--LeuCH2 Cl ({code Z}-FGGL-CH2Cl; reading uncertain; also: printed as Z--Phe--Gly--Gly--LeuCH2 Cl),Protease-Inhibiting Activity of Selected Peptide Halomethyl Ketones: Activity,[1],+++ (key: -: no activity; +/-: low activity; +: active at 100 μg/mL; ++: active at 50 μg/mL; +++: active at 10 μg/mL; ++++: active at <5 μg/mL)
Z--Phe--Pro--Ala--LeuCH2 Cl ({code Z}-FPAL-CH2Cl; reading uncertain; also: printed as Z--Phe--Pro--Ala--LeuCH2 Cl),Comparative Experiments Involving Other Peptide Halomethyl Ketones: Activity,[1],+ (key: -: no activity; +/-: low activity; +: active at 100 μg/mL; ++: active at 50 μg/mL; +++: active at 10 μg/mL; ++++: active at <5 μg/mL)
Z--Phe--Gly--Lys--LeuCH2 Cl ({code Z}-FGKL-CH2Cl; reading uncertain; also: printed as Z--Phe--Gly--Lys--LeuCH2 Cl),Comparative Experiments Involving Other Peptide Halomethyl Ketones: Activity,[1],+ (key: -: no activity; +/-: low activity; +: active at 100 μg/mL; ++: active at 50 μg/mL; +++: active at 10 μg/mL; ++++: active at <5 μg/mL)
Z--Phe--Gly--Phe--LeuCH2 Cl ({code Z}-FGFL-CH2Cl; reading uncertain; also: printed as Z--Phe--Gly--Phe--LeuCH2 Cl),Protease-Inhibiting Activity of Selected Peptide Halomethyl Ketones: Activity,[1],++ (key: -: no activity; +/-: low activity; +: active at 100 μg/mL; ++: active at 50 μg/mL; +++: active at 10 μg/mL; ++++: active at <5 μg/mL)
Z-Phe-Gly-Ala-ValCH2 Cl ({code Z}-FGAV-CH2Cl; reading uncertain; also: printed as Z-Phe-Gly-Ala-ValCH2 Cl) [Z--Phe--Gly--Ala--ValCH2 Cl],Protease-Inhibiting Activity of Selected Peptide Halomethyl Ketones: Activity,[1],++ (key: -: no activity; +/-: low activity; +: active at 100 μg/mL; ++: active at 50 μg/mL; +++: active at 10 μg/mL; ++++: active at <5 μg/mL)
Z--Phe--Leu--Ala--LeuCH2 Cl ({code Z}-FLAL-CH2Cl; reading uncertain; also: printed as Z--Phe--Leu--Ala--LeuCH2 Cl),Protease-Inhibiting Activity of Selected Peptide Halomethyl Ketones: Activity,[1],++ (key: -: no activity; +/-: low activity; +: active at 100 μg/mL; ++: active at 50 μg/mL; +++: active at 10 μg/mL; ++++: active at <5 μg/mL)
Z-Phe-Ser-Ala-LeuCH2 Cl ({code Z}-FSAL-CH2Cl; reading uncertain; also: printed as Z-Phe-Ser-Ala-LeuCH2 Cl) [Z--Phe--Ser--Ala--LeuCH2 Cl],Comparative Experiments Involving Other Peptide Halomethyl Ketones: Activity,[1],+ (key: -: no activity; +/-: low activity; +: active at 100 μg/mL; ++: active at 50 μg/mL; +++: active at 10 μg/mL; ++++: active at <5 μg/mL)
Z-Phe-Gly-Ser-LeuCH2 Cl ({code Z}-FGSL-CH2Cl; reading uncertain; also: printed as Z-Phe-Gly-Ser-LeuCH2 Cl) [Z--Phe--Gly--Ser--LeuCH2 Cl],Protease-Inhibiting Activity of Selected Peptide Halomethyl Ketones: Activity,[1],++ (key: -: no activity; +/-: low activity; +: active at 100 μg/mL; ++: active at 50 μg/mL; +++: active at 10 μg/mL; ++++: active at <5 μg/mL)
Z-Phe-Gly-Leu-LeuCH3 [Z--Phe--Gly--Leu--LeuCH3],activity in the viral cleavage assay,human rhinovirus type 1A [2],demonstrated activity
same,activity in the viral cleavage assay,[1],demonstrated activity
Z-Phe-Gly-Ala-LeuCH2 Cl ({code Z}-FGAL-CH2Cl; reading uncertain; also: printed as Z-Phe-Gly-Ala-LeuCH2 Cl) [Z--Phe--Gly--Ala--LeuCH2 Cl],Protease-Inhibiting Activity of Selected Peptide Halomethyl Ketones: Activity,[1],+++ (key: -: no activity; +/-: low activity; +: active at 100 μg/mL; ++: active at 50 μg/mL; +++: active at 10 μg/mL; ++++: active at <5 μg/mL)
Z--Gln--Gly--Ala--LeuCH2 Cl ({code Z}-QGAL-CH2Cl; reading uncertain; also: printed as Z--Gln--Gly--Ala--LeuCH2 Cl),Comparative Experiments Involving Other Peptide Halomethyl Ketones: Activity,[1],+ (key: -: no activity; +/-: low activity; +: active at 100 μg/mL; ++: active at 50 μg/mL; +++: active at 10 μg/mL; ++++: active at <5 μg/mL)
Z-Phe-Gly-Ala-LeuCH3 ({code Z}-FGAL-CH2; reading uncertain; also: printed as Z-Phe-Gly-Ala-LeuCH3),activity in the viral cleavage assay,human rhinovirus type 1A [2]; test concentration 100 μg/mL,demonstrated activity
same,activity in the viral cleavage assay,[1]; 50 μg/mL,active
same,activity in the viral cleavage assay,[1]; test concentration 100 μg/mL,demonstrated activity
same,plaque reduction,poliovirus type 2,> 90%
same,plaque reduction,"human rhinovirus type 1A [3]; 50 μg/mL in agar overlay, compared to control plates",> 90%
Z-Phe-Gly-Ala-TyrCH2 Cl ({code Z}-FGAY-CH2Cl; reading uncertain; also: printed as Z-Phe-Gly-Ala-TyrCH2 Cl) [Z--Phe--Gly--Ala--TyrCH2 Cl],Protease-Inhibiting Activity of Selected Peptide Halomethyl Ketones: Activity,[1],++ (key: -: no activity; +/-: low activity; +: active at 100 μg/mL; ++: active at 50 μg/mL; +++: active at 10 μg/mL; ++++: active at <5 μg/mL)
Z--Ala--Gly--Ala--LeuCH2 Cl ({code Z}-AGAL-CH2Cl; reading uncertain; also: printed as Z--Ala--Gly--Ala--LeuCH2 Cl),Comparative Experiments Involving Other Peptide Halomethyl Ketones: Activity,[1],+/-
Z-Phe-Gly-Leu-LeuCH2 Cl ({code Z}-FGLL-CH2Cl; reading uncertain; also: printed as Z-Phe-Gly-Leu-LeuCH2 Cl) [Z--Phe--Gly--Leu--LeuCH2 Cl],concentration at which cytotoxicity was first detected,human HeLa-O cells,about 15 μg/mL
same,Protease-Inhibiting Activity of Selected Peptide Halomethyl Ketones: Activity,[1],++++ (key: -: no activity; +/-: low activity; +: active at 100 μg/mL; ++: active at 50 μg/mL; +++: active at 10 μg/mL; ++++: active at <5 μg/mL)
same,"Antiviral activity, as scored by 90% plaque reduction, noted at concentration","human rhinovirus type 1A [3]; HeLa cells, agar overlay",1 µg/mL
Z-- Phe--Gly--Pro--LeuCH2 Cl ({code Z}-FGPL-CH2Cl; reading uncertain; also: printed as Z-- Phe--Gly--Pro--LeuCH2 Cl),Protease-Inhibiting Activity of Selected Peptide Halomethyl Ketones: Activity,[1],++ (key: -: no activity; +/-: low activity; +: active at 100 μg/mL; ++: active at 50 μg/mL; +++: active at 10 μg/mL; ++++: active at <5 μg/mL)
Z--Leu--Gly--Ala--LeuCH2 Cl ({code Z}-LGAL-CH2Cl; reading uncertain; also: printed as Z--Leu--Gly--Ala--LeuCH2 Cl),Protease-Inhibiting Activity of Selected Peptide Halomethyl Ketones: Activity,[1],+++ (key: -: no activity; +/-: low activity; +: active at 100 μg/mL; ++: active at 50 μg/mL; +++: active at 10 μg/mL; ++++: active at <5 μg/mL)
Z--Phe--Phe--Ala--LeuCH2 Cl ({code Z}-FFAL-CH2Cl; reading uncertain; also: printed as Z--Phe--Phe--Ala--LeuCH2 Cl),Comparative Experiments Involving Other Peptide Halomethyl Ketones: Activity,[1],+/-
"Cc1ccc(S(=O)(=O)NC(CCCCN)C(=O)CCl)cc1 (stereo not drawn) [TLCK, tolylsulfonyllysyl chloromethyl ketone]",inhibition of poliovirus protein processing / protease cleavage of poliovirus-specific polypeptides,poliovirus,inhibition
same,inhibition of echovirus-12 protein processing,echovirus-12,inhibition
Ac-Leu-Leu-PheCH3,inhibition of chymotrypsin,chymotrypsin,no inhibition was observed
"Cc1ccc(S(=O)(=O)N[C@@H](Cc2ccccc2)C(=O)CCl)cc1 [TPCK, tolylsulfonylphenylalanyl chloromethyl ketone]",inhibition of poliovirus protein processing / protease cleavage of poliovirus-specific polypeptides,poliovirus,inhibition
same,inhibition of echovirus-12 protein processing,echovirus-12,inhibition
Z-Phe-Gly-Ala-LeuCH2 Br ({code Z}-FGAL-CH2Br; reading uncertain; also: printed as Z-Phe-Gly-Ala-LeuCH2 Br) [Z--Phe--Gly--Ala--LeuCH2 Br],Protease-Inhibiting Activity of Selected Peptide Halomethyl Ketones: Activity,[1],+++ (key: -: no activity; +/-: low activity; +: active at 100 μg/mL; ++: active at 50 μg/mL; +++: active at 10 μg/mL; ++++: active at <5 μg/mL)
MeOSuc-Phe-Gly-Leu-LeuCH3 (MeOSuc-FGLL-CH2; SMILES COC(=O)CCC(=O)N[C@@H](Cc1ccccc1)C(=O)NCC(=O)N[C@@H](CC(C)C)C(=O)N[C@@H](CC(C)C)C(C)=O),activity in the viral cleavage assay,[1]; 50 μg/mL,active
